ChEMBL document CHEMBL5108010, “Structure-activity relationship studies on divalent naphthalene diimide G quadruplex ligands with anticancer and antiparasitic activity” (Bioorg Med Chem, 2022)

Columns and labels:
[1] = Selectivity index, ratio of IC50 for cytotoxicity against human MRC5 cells to IC50 for antileishmanial activity against Leishmania major (MHOM/IL/80/Friedlin) promastigotes; type: toxicity, cell-based; settings: read-out: Ratio IC50
[2] = Cytotoxicity against human MRC5 cells assessed as inhibition of cell proliferation incubated for 72 hrs by alamar blue assay; type: toxicity, cell-based; settings: human, MRC5 cells
[3] = Selectivity index, ratio of IC50 for cytotoxicity against human MRC5 cells to IC50 for cytotoxicity against human HeLa cells; type: toxicity, cell-based; settings: MRC5 cells versus HeLa cells, read-out: Ratio IC50
[4] = Selectivity index, ratio of IC50 for cytotoxicity against human MRC5 cells to IC50 for antitrypanosomal activity against Trypanosoma brucei bloodstream form; type: toxicity, cell-based; settings: MRC5 cells versus Trypanosoma brucei bloodstream form, read-out: Ratio IC50
HeLa = test: Cytotoxicity against human HeLa cells assessed as inhibition of cell proliferation incubated for 72 hrs by alamar blue assay; type: functional, cell-based; settings: Homo sapiens, HeLa, 72 h
Leishmania major = test: Antileishmanial activity against Leishmania major (MHOM/IL/80/Friedlin) promastigotes assessed as inhibition of parasite growth incubated for 72 hrs by MTT assay; type: functional, organism-based; settings: Leishmania major, MHOM/IL/80/Friedlin, 72 h
Trypanosoma brucei = test: Antitrypanosomal activity against Trypanosoma brucei bloodstream form assessed as inhibition of parasite growth incubated for 72 hrs by alamar blue assay; type: functional, organism-based; settings: Trypanosoma brucei, 72 h
Quadruplex DNA [5] = test: Binding affinity to Trypanosoma brucei G-quadruplex telomeric DNA FEBR1T (5'-duplex GGG TTAGGG TTAGGG TTAGGG-3') assessed as stabilization by measuring change in melting temperature at 10 uM in potassium buffer by FRET melting assay; type: nucleic-acid assay
Quadruplex DNA [6] = test: Binding affinity to G-quadruplex telomeric DNA F21T (5'-duplex GGG TTAGGG TTAGGG TTAGGG-3') (unknown origin) assessed as stabilization by measuring change in melting temperature at 10 uM in potassium buffer by FRET melting assay; type: nucleic-acid assay
[7] = Binding affinity to hairpin duplex DNA F10T (unknown origin) assessed as stabilization by measuring change in melting temperature at 10 uM in potassium buffer by FRET melting assay
Quadruplex DNA [8] = test: Binding affinity to G-quadruplex telomeric DNA F21T (5'-duplex GGG TTAGGG TTAGGG TTAGGG-3') (unknown origin) assessed as stabilization by measuring change in melting temperature at 10 uM in sodium buffer by FRET melting assay; type: nucleic-acid assay
Quadruplex DNA [9] = test: Binding affinity to G-quadruplex telomeric DNA FMycT (5'-duplex GGG TTAGGG TTAGGG TTAGGG-3') (unknown origin) assessed as stabilization by measuring change in melting temperature at 10 uM in potassium buffer by FRET melting assay; type: nucleic-acid assay

| IC50 (Trypanosoma brucei) | ΔTm (Quadruplex DNA [5]) | ΔTm (Quadruplex DNA [6]) | ΔTm [7] | ΔTm (Quadruplex DNA [8]) | ΔTm (Quadruplex DNA [9]) | Structure (SMILES) | selectivity ratio [1] | IC50 at 72 h [2] | selectivity ratio [3] | selectivity ratio [4] | IC50 (HeLa) | IC50 (Leishmania major) |
| --- | --- | --- | --- | --- | --- | --- | --- | --- | --- | --- | --- | --- |
| 0.17 µM |  |  |  |  |  | O=C1c2ccc3c4c(ccc(c24)C(=O)N1c1ccccc1N1CCOCC1)C(=O)N(c1ccccc1N1CCOCC1)C3=O | 0.8 | 7.25 µM | 2.34 | 41.9 | 3.09 µM | 9.04 µM |
| 0.57 µM | 3.1 °C | 7 °C | 1 °C | -7 °C | 2 °C | O=C1c2ccc3c4c(ccc(c24)C(=O)N1CCCN1CCOCC1)C(=O)N(CCCN1CCOCC1)C3=O | 2.75 | 11.9 µM | 3.81 | 20.8 | 5.83 µM | 4.32 µM |
| 44.1 µM | 0.7 °C | 0.5 °C | 0 °C | 1.3 °C | -1.6 °C | C[n+]1cccc(N2C(=O)c3ccc4c5c(ccc(c35)C2=O)C(=O)N(c2ccc[n+](C)c2)C4=O)c1 | < 0.28 | 18.2 µM |  | 0.41 | > 63.9 µM | > 63.9 µM |
| 48.7 µM | -0.5 °C | -0.4 °C | -0.2 °C | 0 °C | -3.5 °C | C[n+]1ccc(N2C(=O)c3ccc4c5c(ccc(c35)C2=O)C(=O)N(c2cc[n+](C)cc2)C4=O)cc1 |  | > 63.9 µM |  | > 1.31 | > 63.9 µM | > 63.9 µM |
| 51.7 µM | 0.7 °C | 0.1 °C | 0.3 °C | 0.9 °C | 0.1 °C | O=C1c2ccc3c4c(ccc(c24)C(=O)N1CC(c1ccccn1)N1CCOCC1)C(=O)N(CC(c1ccccn1)N1CCOCC1)C3=O (stereo not drawn) | < 0.83 | 83.1 µM | 0.85 | 1.6 | 96.9 µM | > 100 µM |
| 0.18 µM | 4.6 °C | 6.4 °C | 0.1 °C | 5.8 °C | 8 °C | CN1CCN(c2cccc(N3C(=O)c4ccc5c6c(ccc(c46)C3=O)C(=O)N(c3cccc(N4CCN(C)CC4)c3)C5=O)c2)CC1 | 4.41 | 1.48 µM | 3.09 | 7.91 | 0.47 µM | 0.33 µM |
| 14 µM |  |  |  |  |  | O=C1c2ccc3c4c(ccc(c24)C(=O)N1c1ccc(N2CCOCC2)cc1)C(=O)N(c1ccc(N2CCOCC2)cc1)C3=O | 1.5 | 68.4 µM | 1.47 | 4.88 | 46.4 µM | 45.4 µM |
| 3.71 µM | 2.5 °C | 4.6 °C | 1.4 °C | 3.5 °C | 11 °C | C[n+]1cccc2cc(N3C(=O)c4ccc5c6c(ccc(c46)C3=O)C(=O)N(c3ccc4c(ccc[n+]4C)c3)C5=O)ccc21 | 0.068 | 1.15 µM | 0.031 | 0.3 | 37 µM | 16.8 µM |

The remaining lines, values behind:

| Structure (SMILES) | IC50 (Trypanosoma brucei) | ΔTm (Quadruplex DNA [5]) | ΔTm (Quadruplex DNA [6]) | ΔTm [7] | ΔTm (Quadruplex DNA [8]) | ΔTm (Quadruplex DNA [9]) | selectivity ratio [1] | IC50 at 72 h [2] | selectivity ratio [3] | selectivity ratio [4] | IC50 (HeLa) | IC50 (Leishmania major) |
| --- | --- | --- | --- | --- | --- | --- | --- | --- | --- | --- | --- | --- |
| C[n+]1ccc(CN2C(=O)c3ccc4c5c(ccc(c35)C2=O)C(=O)N(Cc2cc[n+](C)cc2)C4=O)cc1 | 0.98 µM | 9 °C | 13 °C | 5 °C | 4.9 °C | 20.1 °C | 0.31 | 0.49 µM | 0.033 | 0.49 | 14.7 µM | 1.56 µM |
| CN1CCN(CCN2C(=O)c3ccc4c5c(ccc(c35)C2=O)C(=O)N(CCN2CCN(C)CC2)C4=O)CC1 | 0.48 µM | 12 °C | 21.5 °C | 2.7 °C | 11.3 °C | 16 °C | 4.04 | 6.78 µM | 6.4 | 14.2 | 1.06 µM | 1.68 µM |
| C[n+]1cccc2c(N3C(=O)c4ccc5c6c(ccc(c46)C3=O)C(=O)N(c3cccc4c3ccc[n+]4C)C5=O)cccc21 | 0.35 µM | 3 °C | 2 °C | 0.5 °C | 1.4 °C | 0.6 °C | 0.15 | 0.28 µM | 0.011 | 0.79 | 24.2 µM | 1.86 µM |
| CC(CCN1C(=O)c2ccc3c4c(ccc(c24)C1=O)C(=O)N(CCC(C)N1CCN(C)CC1)C3=O)N1CCN(C)CC1 (stereo not drawn) | 0.13 µM | 24.8 °C | 28.5 °C | 4.5 °C | 18.8 °C | 22 °C | 5.17 | 1.24 µM | 3.54 | 9.5 | 0.35 µM | 0.24 µM |
| CC(CN1C(=O)c2ccc3c4c(ccc(c24)C1=O)C(=O)N(CC(C)N1CCN(C)CC1)C3=O)N1CCN(C)CC1 (stereo not drawn) | 0.17 µM | 17.5 °C | 20.5 °C | 1.7 °C | 9.2 °C | 13.2 °C | 0.17 | 1.4 µM | 0.83 | 8.2 | 1.68 µM | 8.08 µM |
| CN1CCN(CCCN2C(=O)c3ccc4c5c(ccc(c35)C2=O)C(=O)N(CCCN2CCN(C)CC2)C4=O)CC1 | 0.61 µM | 11 °C | 20 °C | 3 °C | 2 °C | 13 °C |  | 3.9 µM |  |  | 0.41 µM | 0.47 µM |
| CN1CCN(C(C)(C)CN2C(=O)c3ccc4c5c(ccc(c35)C2=O)C(=O)N(CC(C)(C)N2CCN(C)CC2)C4=O)CC1 | 0.96 µM | 4 °C | 20.7 °C | 0.2 °C | 10.2 °C | 14.8 °C | 0.14 | 3.38 µM | 0.76 | 3.5 | 4.47 µM | 24.6 µM |
| C[n+]1cc(N2C(=O)c3ccc4c5c(ccc(c35)C2=O)C(=O)N(c2cc3ccccc3[n+](C)c2)C4=O)cc2ccccc21 | 19.7 µM | -0.9 °C | 0.3 °C | 0.1 °C | 0.4 °C | 1.2 °C | 0.065 | 3.41 µM | 0.053 | 0.17 | 64.8 µM | 52.1 µM |
| CN1CCN(CC2(CN3C(=O)c4ccc5c6c(ccc(c46)C3=O)C(=O)N(CC3(CN4CCN(C)CC4)CC3)C5=O)CC2)CC1 | 0.42 µM | 15.5 °C | 18.5 °C | 0.5 °C | 7.7 °C | 15 °C | 0.12 | 1.51 µM | 0.85 | 3.6 | 1.77 µM | 12.7 µM |
